Data set [1] relates to MCF-7. Briefly: In vitro anti-proliferative activity, MTT assay, MCF-7. The class given is cell-based, human. To be noted: for IC50: Homo sapiens, MCF7, MTT, 24 h treatment, mean ± S.D. of three separate experiments. The method, then: (§1) The cells were obtained from ATCC (American Type Culture Collection) via the Holding company for biological products and vaccines (VACSERA) (Cairo, Egypt). […] After incubation period, the cell lines were treated with different concentration of the synthesized compounds and incubated for 24 h. After treatment by 24 h, 20 μL of MTT solution (5 mg mL^−1) was added and incubated for 4 h. Dimethyl sulfoxide (100 μL) was added into each well to dissolve the formed purple formazan. […] The relative cell viability in percentage was calculated as (A570 of treated samples/A570 of untreated sample) X 100.
(Formazan colour is commonly taken as a measure of viable cells.)

Data set [2] relates to HepG-2. Briefly: In vitro anti-proliferative activity, MTT assay, HepG-2. Conditions: for IC50: Homo sapiens, HepG2, MTT, 24 h treatment, mean ± S.D. of three separate experiments. It counts as cell-based, human. The procedure:
as §1

Data set [3] concerns the target T1, purified bovine tubulin (Bos taurus, UniProt P81947+Q6B856).
T1 construct: purified bovine tubulin (10 μM); from tissue; host or cells: bovine
Briefly: In vitro tubulin polymerization assay. The class given is biochemical. To be noted: purified bovine tubulin 10 μM, 37 °C; read-out: IC50 Tubulin polymerization inhibition. The procedure: The inhibition assay on microtubule polymerization was evaluated turbidimetrically using a fluorescent plate reader.[52]

In data set [4] the test system is HCT-116. Briefly: In vitro anti-proliferative activity, MTT assay, HCT-116. It counts as cell-based, human. To be noted: for IC50: Homo sapiens, HCT-116, MTT, 24 h treatment, mean ± S.D. of three separate experiments. The procedure:
as §1

Data set [5] deals with HepG-2 cells. Briefly: Cell cycle analysis (PI staining, flow cytometry). It counts as cell-based, human. The procedure: To gain a better insight into the impact of compound 5a on cancer cell growth inhibition, its impact on cell cycle distribution and apoptosis induction was assessed using HepG-2 cells according to the method outlined by Wang et al.[53] In fact, anticancer agents hinder cancer cell growth and multiplication by arresting cell division at distinct checkpoints, and that cells resist apoptosis are highly resistant to cancer treatment.[54]
HepG-2 cells were seeded at density of 2 × 10^5 cells per well and incubated for 24 h in six-well plates. Fetal bovine serum (FBS, 10%) was added, after that cells were incubated at 37 °C and 5% CO2. The medium was replaced with (DMSO 1% v/v) containing the 2.5 μM of compound 5a, then incubated for 48 h, washed with cold phosphate buffered saline (PBS), fixed with 70% ethanol, rinsed with PBS then stained with the DNA fluorochrome PI, kept for 15 min at 37 °C. Then samples were analyzed with a FACS Caliber flow cytometer.[53]
(In flow cytometry, cells or beads pass a laser one at a time.)

For data set [6], the system named is HepG-2 cells. Briefly: Annexin V-FITC apoptosis assay. It counts as cell-based, human. Conditions: HepG-2, 5a at 2.5 μM for 24 h. The procedure: To further confirm Apoptotic effect of compound 5a in HepG-2 cells, Annexin V and PI double staining assay was performed.[55] In this test, HepG-2 cells were incubated with compound 5a at concentration of 2.5 μM for 24 h.
The effect of the most cytotoxic compound 5a on apoptosis induction was analyzed using Annexin V-FITC/PI apoptosis detection kit. In this test, HepG-2 cells were stained with Annexin V fluorescein isothiocyanate (FITC) and counterstained with propidium iodide (PI). Then, HepG-2 cells in a density of 2 × 10^5 per well were incubated with compound 5a for […]. Next, the cells were trypsinized, washed with phosphate-buffered saline (PBS), and stained for 15 min at 37 °C in the dark. Finally, FACS Caliber flow cytometer was used in analysis process.[55]

T1 sequence (Q6B856 whole entry): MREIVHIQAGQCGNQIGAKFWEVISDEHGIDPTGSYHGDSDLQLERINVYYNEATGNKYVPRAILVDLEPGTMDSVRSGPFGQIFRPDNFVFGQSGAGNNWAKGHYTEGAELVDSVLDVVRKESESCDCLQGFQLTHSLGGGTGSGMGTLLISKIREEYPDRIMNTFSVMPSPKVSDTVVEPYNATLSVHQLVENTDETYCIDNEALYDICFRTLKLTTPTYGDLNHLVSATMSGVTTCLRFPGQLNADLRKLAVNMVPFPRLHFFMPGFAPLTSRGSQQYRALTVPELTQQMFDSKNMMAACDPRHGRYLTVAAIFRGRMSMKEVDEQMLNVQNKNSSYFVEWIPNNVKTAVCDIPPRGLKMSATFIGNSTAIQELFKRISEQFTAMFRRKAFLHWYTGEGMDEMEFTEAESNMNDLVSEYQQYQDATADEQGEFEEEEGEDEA
T1 sequence (P81947 whole entry): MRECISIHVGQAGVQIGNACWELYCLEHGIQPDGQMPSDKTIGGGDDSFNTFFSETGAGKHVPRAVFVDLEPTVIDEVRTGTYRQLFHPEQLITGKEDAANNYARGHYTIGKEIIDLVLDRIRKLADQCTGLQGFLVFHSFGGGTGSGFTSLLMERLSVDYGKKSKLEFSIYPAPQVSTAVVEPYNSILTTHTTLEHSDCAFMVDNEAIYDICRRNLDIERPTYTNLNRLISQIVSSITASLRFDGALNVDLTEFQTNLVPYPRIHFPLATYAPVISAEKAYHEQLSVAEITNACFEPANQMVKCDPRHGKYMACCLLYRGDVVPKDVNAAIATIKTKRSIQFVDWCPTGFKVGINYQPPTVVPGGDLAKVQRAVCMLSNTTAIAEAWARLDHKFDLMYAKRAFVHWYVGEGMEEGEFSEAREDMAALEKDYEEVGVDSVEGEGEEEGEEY

As usually defined, the IC50 is the concentration that gives 50% inhibition. The melting point is the temperature of the solid-liquid transition. `C/C(=N\NC1=N/C(=C/c2cccs2)C(=O)S1)c1ccc(C)cc1` [Compound 5a, (E)-4-(Thiophen-2-ylmethylene)-2-(2-((E)-1-(p-tolyl)ethylidene)hydrazinyl) thiazol-5(4H)-one]: the melting point was 202 to 204 °C. This compound displayed an IC50 in data set [1] of 4.51 ± 0.6 µM. In addition, the “times as active as colchicine against MCF-7” value in data set [1] (ratio of IC50 values) is on record as 2.32 times. For the same compound, half-maximal inhibition in data set [2] (IC50) was put at 3.34 ± 0.1 µM. In addition, the “times as active as colchicine against HepG-2” value in data set [2] (ratio of IC50 values) is 2.23 times. For the same compound, the IC50 in data set [3] was 0.00952 ± 0.0003 µM. Further, the IC50 in data set [4] was 6.41 ± 0.1 µM. The “times as active as colchicine against HCT-116” value in data set [4] (ratio of IC50 values) was 1.45 times. In data set [5] (HepG-2, 5a at 2.5 μM for 48 h, control 2.14), the “Cell cycle distribution % Pre-G1” value worked out at 15.33%. Also, in data set [5] (HepG-2, 5a at 2.5 μM for 48 h, control 5.09), the “Cell cycle distribution % G2-M” value is on record as 20.55%. The “Cell cycle distribution % S” value in data set [5] (HepG-2, 5a at 2.5 μM for 48 h, control 38.15) amounted to 39.28%. In data set [5] (HepG-2, 5a at 2.5 μM for 48 h, control 56.76), the “Cell cycle distribution % G0-G1” value is given as 40.17%. The “effect on cell cycle” value in data set [5] (HepG-2 cells) was “cell arrest at G2/M phase”. For the same compound, the Necrosis in data set [6] (control 0.48) is recorded as 1.54%. Moreover, the “Apoptosis Late” value in data set [6] (control 0.64) amounted to 5.54%. Moreover, the “Apoptosis Early” value in data set [6] (control 1.02) is 8.25%. For the same compound, in data set [6] (control 2.14), the “Apoptosis Total” value was 15.33%.

Turning to `C/C(=N\NC1=N/C(=C/c2ccc(O)cc2O)C(=O)S1)c1cccs1` [Compound 8f, 4-((E)-2,4-Dihydroxybenzylidene)-2-(2-((E)-1-(thiophen-2-yl)ethylidene) hydrazinyl) thiazol-5(4H)-one], the melting point is greater than 300 °C. In data set [1], this compound displayed an IC50 of 7.65 ± 0.2 µM. Moreover, the IC50 in data set [2] was found to be 3.23 ± 0.1 µM. For the same compound, in data set [3], the IC50 turned out to be 0.0116 ± 0.0002 µM. Besides, half-maximal inhibition in data set [4] (IC50) was put at 8.96 ± 0.2 µM.

`COc1ccc(/C=C2/N=C(N/N=C(\C)c3ccco3)SC2=O)cc1` [Compound 8g, 2-(2-((E)-1-(Furan-2-yl)ethylidene)hydrazinyl)-4-((E)-4-methoxybenzylid-ene)thiazol-5(4H)-one]: the melting point lay within 288 to 290 °C. The compound also gave an IC50 in data set [1] of 9.29 ± 0.1 µM. In data set [2], this compound returned an IC50 of 4.69 ± 0.1 µM. Besides, the IC50 in data set [3] is 0.0142 ± 0.0003 µM. For the same compound, in data set [4], half-maximal inhibition (IC50) was put at 6.59 ± 0.1 µM.

In the case of `C/C(=N\NC1=N/C(=C/c2ccc(Cl)cc2)C(=O)S1)c1ccco1` [Compound 8h, 4-((E)-4-Chlorobenzylidene)-2-(2-((E)-1-(furan-2-yl)ethylidene)hydra-zinyl)thiazol-5(4H)-one], the melting point fell in the range of 272 to 274 °C. The compound further showed an IC50 in data set [1] of 20 ± 0.4 µM. Further, the IC50 in data set [2] was found to be 10.3 ± 0.6 µM. Moreover, the IC50 in data set [3] worked out at 0.0384 ± 0.0014 µM. Besides, half-maximal inhibition in data set [4] (IC50) required 12 ± 0.3 µM.

The compound `C/C(=N\NC1=N/C(=C/c2ccc(O)cc2)C(=O)S1)c1ccco1` [Compound 8i, 2-(2-((E)-1-(Furan-2-yl)ethylidene)hydrazinyl)-4-((E)-4-hydroxybenzylid-ene)thiazol-5(4H)-one] gave a melting point of 293 to 295 °C. The compound further registered an IC50 in data set [1] of 22.7 ± 0.7 µM. Besides, 12.5 ± 0.2 µM corresponded to half-maximal inhibition in data set [2] (IC50). For the same compound, the IC50 in data set [3] amounted to 0.0478 ± 0.0021 µM. The same compound gave an IC50 in data set [4] of 15.6 ± 0.4 µM.

`COc1ccc(/C=C2/N=C(N/N=C(\C)c3ccco3)SC2=O)cc1OC` [Compound 8k, 4-((E)-3,4-Dimethoxybenzylidene)-2-(2-((E)-1-(furan-2-yl)ethylidene)hydra-zinyl)thiazol-5(4H)-one] came in with a melting point of 240 to 242 °C. Moreover, it took 9.15 ± 0.2 µM to reach half-maximal inhibition in data set [1] (IC50). The IC50 in data set [2] worked out at 4.58 ± 0.1 µM. Moreover, the IC50 in data set [3] came out at 0.0135 ± 0.0008 µM. In data set [4], this compound had an IC50 of 5.55 ± 0.1 µM.

`C/C(=N\NC1=N/C(=C/c2ccc(O)cc2O)C(=O)S1)c1ccco1` [Compound 8l, 4-((E)-2,4-Dihydroxybenzylidene)-2-(2-((E)-1-(furan-2-yl)ethylidene) hydrazinyl) thiazol-5(4H)-one] registered a melting point of 282 to 284 °C. Moreover, the IC50 in data set [1] was 7.89 ± 0.5 µM. The IC50 in data set [2] came to 3.73 ± 0.1 µM. The IC50 in data set [3] worked out at 0.0132 ± 0.0009 µM. The same compound had an IC50 in data set [4] of 10.28 ± 0.1 µM.

As to `C/C(=N\NC1=N/C(=C/c2cccs2)C(=O)S1)c1cccs1` [Compound 9a, (E)-2-(2-((E)-1-(Thiophen-2-yl)ethylidene)hydrazinyl)-4-(thiophen-2-ylmethylene)thiazol-5(4H)-one], the melting point is 214 to 216 °C. Besides, in data set [1], the IC50 was 33.6 ± 0.9 µM. This compound also yielded an IC50 in data set [2] of 21.9 ± 0.9 µM. Further, the IC50 in data set [3] amounted to 0.0391 ± 0.001 µM. In data set [4], the IC50 stood at 24.2 ± 0.7 µM.

The values above are taken from PMC9048505 (RSC Advances, 2020).
